Results as given in ChEMBL document CHEMBL3856231 (J Med Chem, 2016).

Tests used:
[1] = Drug metabolism in rat liver microsomes assessed as oxidative/degradative M5 metabolite formation at 10 uM after 120 mins in presence of NADPH by LC/MS/MS analysis; format: ADME; details: 2 h
[2] = Half life in CD-1 mouse liver microsomes by LC/MS/MS analysis; format: ADME
[3] = Drug metabolism in rat liver microsomes assessed as oxidative/degradative M1 metabolite formation at 10 uM after 120 mins in presence of NADPH by LC/MS/MS analysis; format: ADME; details: 2 h
[4] = Drug metabolism in rat liver microsomes assessed as oxidative/degradative M2 metabolite formation at 10 uM after 120 mins in presence of NADPH by LC/MS/MS analysis; format: ADME; details: 2 h
[5] = Drug metabolism in rat liver microsomes assessed as oxidative/degradative M6 metabolite formation at 10 uM after 120 mins in presence of NADPH by LC/MS/MS analysis; format: ADME; details: 2 h
[6] = (§1) Drug metabolism in rat liver microsomes assessed as (1S,5R,6S,7R)-7-[5-Chloro-2-((S)-1-methoxy-7-morpholin-4-yl-6,7,8,9-tetrahydro-5H-benzocyclohepten-2-ylamino)-pyrimidin-4-ylamino]-3-oxa-tricyclo[3.2.1.0(2,4)]octane-6-carboxylic acid amide formation at 10 uM after 120 mins in presence of NADPH by LC/MS/MS analysis; format: ADME; details: 2 h
[7] = Drug metabolism in human liver microsomes assessed as oxidative/degradative M1 metabolite formation at 10 uM after 120 mins in presence of NADPH by LC/MS/MS analysis; format: ADME; details: 2 h
[8] = Drug metabolism in human liver microsomes assessed as oxidative/degradative M2 metabolite formation at 10 uM after 120 mins in presence of NADPH by LC/MS/MS analysis; format: ADME; details: 2 h
[9] = Drug metabolism in human liver microsomes assessed as oxidative/degradative M5 metabolite formation at 10 uM after 120 mins in presence of NADPH by LC/MS/MS analysis; format: ADME; details: 2 h
[10] = Drug metabolism in human liver microsomes assessed as oxidative/degradative M6 metabolite formation at 10 uM after 120 mins in presence of NADPH by LC/MS/MS analysis; format: ADME; details: 2 h
[11] = as §1, with “human” for “rat”; format: ADME; details: 2 h
[12] = Half life in rat liver microsomes by LC/MS/MS analysis; format: ADME
[13] = Half life in human liver microsomes by LC/MS/MS analysis; format: ADME
[14] = molecular target: ALK tyrosine kinase receptor (Homo sapiens, UniProt Q9UM73); assay: Inhibition of NPM-ALK phosphorylation in human SUP-M2 cells after 2 to 3 hrs by ELISA; format: cell-based
Sequence of ALK tyrosine kinase receptor (Q9UM73 19-1620 limits assumed): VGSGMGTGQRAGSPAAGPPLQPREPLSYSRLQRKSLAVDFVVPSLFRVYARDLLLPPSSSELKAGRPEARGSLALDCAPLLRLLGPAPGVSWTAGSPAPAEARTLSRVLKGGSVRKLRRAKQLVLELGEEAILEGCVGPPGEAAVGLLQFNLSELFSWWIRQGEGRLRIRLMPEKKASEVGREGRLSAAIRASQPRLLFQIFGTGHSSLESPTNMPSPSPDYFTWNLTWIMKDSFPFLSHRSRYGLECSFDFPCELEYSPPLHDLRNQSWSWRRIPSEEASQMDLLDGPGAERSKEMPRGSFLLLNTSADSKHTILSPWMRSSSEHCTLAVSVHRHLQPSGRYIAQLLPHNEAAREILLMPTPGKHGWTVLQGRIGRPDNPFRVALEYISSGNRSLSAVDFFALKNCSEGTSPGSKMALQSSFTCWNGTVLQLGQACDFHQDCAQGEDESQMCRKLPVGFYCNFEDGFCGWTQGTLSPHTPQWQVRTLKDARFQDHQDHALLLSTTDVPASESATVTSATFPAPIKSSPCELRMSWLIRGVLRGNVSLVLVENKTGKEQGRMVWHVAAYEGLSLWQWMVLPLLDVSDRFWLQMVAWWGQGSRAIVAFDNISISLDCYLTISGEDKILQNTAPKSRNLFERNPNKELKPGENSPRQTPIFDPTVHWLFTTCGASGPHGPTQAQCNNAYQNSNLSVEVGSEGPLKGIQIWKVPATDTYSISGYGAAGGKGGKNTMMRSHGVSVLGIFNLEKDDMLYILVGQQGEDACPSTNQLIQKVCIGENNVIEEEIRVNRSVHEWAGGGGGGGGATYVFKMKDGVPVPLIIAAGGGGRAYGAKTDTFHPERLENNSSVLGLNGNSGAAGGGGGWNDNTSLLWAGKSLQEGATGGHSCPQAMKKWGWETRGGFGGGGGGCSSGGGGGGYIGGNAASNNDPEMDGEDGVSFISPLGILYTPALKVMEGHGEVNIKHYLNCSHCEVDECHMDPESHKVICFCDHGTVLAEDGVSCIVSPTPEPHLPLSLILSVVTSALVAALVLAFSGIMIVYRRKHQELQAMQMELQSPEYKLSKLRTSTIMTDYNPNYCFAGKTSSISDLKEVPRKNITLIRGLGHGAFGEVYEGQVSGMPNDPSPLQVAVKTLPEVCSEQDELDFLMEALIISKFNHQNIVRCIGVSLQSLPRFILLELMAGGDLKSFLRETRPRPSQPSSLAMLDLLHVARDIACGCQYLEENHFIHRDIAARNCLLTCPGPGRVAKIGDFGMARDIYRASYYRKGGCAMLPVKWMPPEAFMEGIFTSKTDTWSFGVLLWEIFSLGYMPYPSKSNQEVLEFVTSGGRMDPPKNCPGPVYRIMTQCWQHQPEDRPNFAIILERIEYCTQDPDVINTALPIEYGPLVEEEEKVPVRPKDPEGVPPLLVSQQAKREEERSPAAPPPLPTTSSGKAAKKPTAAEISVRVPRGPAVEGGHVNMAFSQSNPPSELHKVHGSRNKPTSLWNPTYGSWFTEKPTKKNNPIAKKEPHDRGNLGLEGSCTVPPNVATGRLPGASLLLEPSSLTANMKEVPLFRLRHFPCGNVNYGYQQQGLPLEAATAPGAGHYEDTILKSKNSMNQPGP

Focal adhesion kinase 1 = Focal adhesion kinase 1 (Homo sapiens, UniProt Q05397); assay: Inhibition of human FAK expressed in baculovirus after 30 mins using biotinyl-amino-hexanoyl-EQEDEPEGDYFEWLE-amide as substrate by TRF assay
[15] = molecular target: Voltage-gated inwardly rectifying potassium channel KCNH2 (Homo sapiens, UniProt Q12809); assay: Inhibition of human ERG
Cytochrome P450 1A2 = molecular target: T1, Cytochrome P450 1A2 (Homo sapiens, UniProt P05177); assay: Inhibition of CYP1A2 in human liver microsomes using phenacetin as substrate in presence of NADPH by LC/MS/MS analysis; format: ADME
T1 sequence (P05177 whole entry): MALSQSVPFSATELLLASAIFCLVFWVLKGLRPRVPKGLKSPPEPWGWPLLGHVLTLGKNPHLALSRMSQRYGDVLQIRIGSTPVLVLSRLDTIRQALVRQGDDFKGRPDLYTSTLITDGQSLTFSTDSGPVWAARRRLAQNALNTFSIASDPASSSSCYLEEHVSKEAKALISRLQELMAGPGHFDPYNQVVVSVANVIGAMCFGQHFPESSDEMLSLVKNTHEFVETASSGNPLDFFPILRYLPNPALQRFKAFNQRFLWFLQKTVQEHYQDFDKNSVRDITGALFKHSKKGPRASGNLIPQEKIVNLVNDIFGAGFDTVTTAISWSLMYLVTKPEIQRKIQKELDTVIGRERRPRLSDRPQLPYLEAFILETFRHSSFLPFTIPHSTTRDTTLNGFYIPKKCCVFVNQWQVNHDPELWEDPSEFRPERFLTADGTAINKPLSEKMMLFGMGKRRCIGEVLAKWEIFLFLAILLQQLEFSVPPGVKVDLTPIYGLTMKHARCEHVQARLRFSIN

Cytochrome P450 2C9 = Cytochrome P450 2C9 (Homo sapiens, UniProt P11712); assay: Inhibition of CYP2C9 in human liver microsomes using diclofenac as substrate in presence of NADPH by LC/MS/MS analysis; format: ADME
Sequence of Cytochrome P450 2C9 (P11712 whole entry): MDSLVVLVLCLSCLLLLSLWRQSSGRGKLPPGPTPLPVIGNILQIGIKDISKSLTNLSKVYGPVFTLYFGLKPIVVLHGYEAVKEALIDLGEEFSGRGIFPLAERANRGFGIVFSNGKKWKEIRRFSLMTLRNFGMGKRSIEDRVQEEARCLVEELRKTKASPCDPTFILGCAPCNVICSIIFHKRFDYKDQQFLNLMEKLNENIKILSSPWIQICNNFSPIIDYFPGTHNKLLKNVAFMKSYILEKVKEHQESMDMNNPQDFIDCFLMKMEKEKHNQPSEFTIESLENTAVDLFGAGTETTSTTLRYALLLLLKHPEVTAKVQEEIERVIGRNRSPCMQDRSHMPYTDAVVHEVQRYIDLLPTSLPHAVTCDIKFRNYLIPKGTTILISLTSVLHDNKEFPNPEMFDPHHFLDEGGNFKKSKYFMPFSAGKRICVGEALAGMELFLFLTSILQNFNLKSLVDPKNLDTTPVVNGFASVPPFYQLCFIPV

Cytochrome P450 2C19 = Cytochrome P450 2C19 (Homo sapiens, UniProt P33261); assay: Inhibition of CYP2C19 in human liver microsomes using S-mephenytoin as substrate in presence of NADPH by LC/MS/MS analysis; format: ADME
Sequence of Cytochrome P450 2C19 (P33261 whole entry): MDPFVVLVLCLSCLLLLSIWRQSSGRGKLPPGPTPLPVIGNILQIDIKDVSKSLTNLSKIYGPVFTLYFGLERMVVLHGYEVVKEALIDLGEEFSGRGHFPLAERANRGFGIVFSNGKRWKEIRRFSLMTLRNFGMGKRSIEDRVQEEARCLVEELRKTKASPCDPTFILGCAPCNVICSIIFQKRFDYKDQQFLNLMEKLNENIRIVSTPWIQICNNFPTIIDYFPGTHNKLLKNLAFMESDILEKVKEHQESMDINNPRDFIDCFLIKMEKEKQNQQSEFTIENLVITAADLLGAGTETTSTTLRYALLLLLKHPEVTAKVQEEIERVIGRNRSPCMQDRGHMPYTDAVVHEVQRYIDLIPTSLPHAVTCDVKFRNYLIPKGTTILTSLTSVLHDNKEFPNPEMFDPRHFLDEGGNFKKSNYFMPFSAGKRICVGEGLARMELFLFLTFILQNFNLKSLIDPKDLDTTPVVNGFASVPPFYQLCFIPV

Cytochrome P450 2D6 = Cytochrome P450 2D6 (Homo sapiens, UniProt P10635); assay: Inhibition of CYP2D6 in human liver microsomes using dextromethorphan as substrate in presence of NADPH by LC/MS/MS analysis; format: ADME
Sequence of Cytochrome P450 2D6 (P10635 whole entry): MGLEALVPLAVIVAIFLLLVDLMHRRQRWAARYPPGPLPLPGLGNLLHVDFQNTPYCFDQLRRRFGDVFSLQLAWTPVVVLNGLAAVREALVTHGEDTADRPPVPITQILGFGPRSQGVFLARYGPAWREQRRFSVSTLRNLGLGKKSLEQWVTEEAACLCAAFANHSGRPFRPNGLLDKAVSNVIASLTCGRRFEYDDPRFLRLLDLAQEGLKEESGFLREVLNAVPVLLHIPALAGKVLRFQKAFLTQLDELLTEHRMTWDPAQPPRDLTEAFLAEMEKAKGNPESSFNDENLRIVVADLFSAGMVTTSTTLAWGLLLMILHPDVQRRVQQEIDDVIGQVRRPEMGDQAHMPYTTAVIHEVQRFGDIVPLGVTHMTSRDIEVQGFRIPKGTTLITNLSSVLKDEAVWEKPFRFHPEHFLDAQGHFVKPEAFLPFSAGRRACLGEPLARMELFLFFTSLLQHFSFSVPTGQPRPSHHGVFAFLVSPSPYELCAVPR

[16] = Half life in cynomolgus monkey liver microsomes by LC/MS/MS analysis; format: ADME, Macaca fascicularis
[17] = AUC (0 to infinity) in Sprague-Dawley rat at 5 mg/kg, po by LC/MS/MS analysis; format: ADME, organism-based; set-up: dose 5 mg/kg, time infinity, route oral; details: in vivo
[18] = Dose normalized AUC in CD-1 mouse at 10 mg/kg, po by LC/MS/MS analysis; format: ADME, organism-based; details: in vivo
[19] = Dose normalized AUC in Sprague-Dawley rat at 5 mg/kg, po by LC/MS/MS analysis; format: ADME, organism-based; details: in vivo
[20] = Dose normalized AUC in cynomolgus monkey at 10 mg/kg, po by LC/MS/MS analysis; format: ADME, organism-based, Macaca fascicularis; details: in vivo
Insulin receptor [21] = molecular target: T2, Insulin receptor (Homo sapiens, UniProt P06213)
T2 sequence (P06213 28-758 limits assumed): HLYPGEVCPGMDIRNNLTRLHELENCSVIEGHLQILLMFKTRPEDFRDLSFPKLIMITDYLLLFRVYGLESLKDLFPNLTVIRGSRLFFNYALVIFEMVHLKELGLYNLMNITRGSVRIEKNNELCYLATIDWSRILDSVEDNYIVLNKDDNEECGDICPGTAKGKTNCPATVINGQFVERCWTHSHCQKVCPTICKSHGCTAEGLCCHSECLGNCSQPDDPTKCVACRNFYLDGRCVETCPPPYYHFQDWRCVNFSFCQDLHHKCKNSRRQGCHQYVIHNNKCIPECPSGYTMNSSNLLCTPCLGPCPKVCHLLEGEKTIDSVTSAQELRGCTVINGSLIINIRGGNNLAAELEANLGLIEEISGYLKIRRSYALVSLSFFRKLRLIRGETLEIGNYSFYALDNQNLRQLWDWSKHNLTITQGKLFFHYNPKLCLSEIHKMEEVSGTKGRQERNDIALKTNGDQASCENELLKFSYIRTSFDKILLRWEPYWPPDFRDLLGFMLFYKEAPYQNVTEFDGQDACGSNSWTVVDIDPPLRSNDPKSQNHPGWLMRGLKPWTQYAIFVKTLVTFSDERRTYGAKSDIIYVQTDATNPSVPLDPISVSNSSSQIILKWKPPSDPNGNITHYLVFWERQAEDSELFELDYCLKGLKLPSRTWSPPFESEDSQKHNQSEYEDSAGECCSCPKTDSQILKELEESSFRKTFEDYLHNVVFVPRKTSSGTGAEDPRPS
T2 sequence (P06213 763-1382 limits assumed): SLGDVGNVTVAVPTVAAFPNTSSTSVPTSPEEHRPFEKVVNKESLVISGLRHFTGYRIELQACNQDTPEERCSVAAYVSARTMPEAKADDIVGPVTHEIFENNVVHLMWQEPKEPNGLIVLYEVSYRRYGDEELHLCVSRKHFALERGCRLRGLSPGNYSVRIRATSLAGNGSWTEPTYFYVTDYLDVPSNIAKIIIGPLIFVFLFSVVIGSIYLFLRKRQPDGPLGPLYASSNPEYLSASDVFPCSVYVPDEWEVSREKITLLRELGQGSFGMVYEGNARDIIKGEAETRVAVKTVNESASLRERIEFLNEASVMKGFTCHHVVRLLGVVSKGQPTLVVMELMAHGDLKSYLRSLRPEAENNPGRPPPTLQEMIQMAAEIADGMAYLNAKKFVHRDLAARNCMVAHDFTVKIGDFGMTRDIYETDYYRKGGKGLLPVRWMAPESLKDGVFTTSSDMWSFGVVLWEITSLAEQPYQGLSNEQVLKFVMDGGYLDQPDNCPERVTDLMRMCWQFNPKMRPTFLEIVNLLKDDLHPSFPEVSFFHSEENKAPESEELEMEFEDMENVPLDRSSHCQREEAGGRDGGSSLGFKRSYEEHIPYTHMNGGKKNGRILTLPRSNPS

Insulin receptor [22] = molecular target: T2, Insulin receptor; remark: listed apart in the source

Drug metabolism [1]: Metabolite_Detected
half-life [2]: 8 to 13 min
Drug metabolism [3]: Metabolite_Detected
Drug metabolism [4]: Metabolite_Detected
Drug metabolism [5]: Metabolite_Detected
Drug metabolism [6]: Metabolite_Detected
Drug metabolism [7]: Metabolite_Detected
Drug metabolism [8]: Metabolite_Detected
Drug metabolism [9]: Metabolite_Detected
Drug metabolism [10]: Metabolite_Detected
Drug metabolism [11]: Metabolite_Detected
half-life [12]: 7 to 16 min
half-life [13]: 10 to 11 min
IC50 [14]: 0.02 to 0.042 µM
IC50 (Focal adhesion kinase 1): 0.025 to 0.03 µM
IC50 (Cytochrome P450 1A2): > 10 µM
IC50 (Cytochrome P450 2C9): > 10 µM
IC50 (Cytochrome P450 2C19): > 10 µM
IC50 (Cytochrome P450 2D6): > 10 µM
half-life [16]: 17 min
AUC(0-inf) [17]: 1200 ng·h/mL
AUC/dose [18]: 299 ng·h/mL
AUC/dose [19]: 246 ng·h/mL
AUC/dose [20]: 95 ng·h/mL
IC50 (Insulin receptor [21]): 0.662 to 1.26 µM
IC50 (Insulin receptor [22]): > 10 µM
SMILES: COc1c(Nc2ncc(Cl)c(N[C@H]3[C@@H](C(N)=O)[C@@H]4C=C[C@H]3C4)n2)ccc2c1CC[C@@H](N1CCOCC1)CC2
IC50 [15]: > 10 µM
